Data published in patent publication US20130158075A1, “HETEROCYCLIC COMPOUNDS AS DGAT1 INHIBITORS” (PIRAMAL ENTERPRISES LIMITED, priority 2010, published 2013).

Target: T1, hDGAT1 (Homo sapiens, UniProt O75907)
T1 construct: made in house; host or cells: Sf9 insect cells (baculovirus); microsomal fraction
T1 sequence (O75907 1-488): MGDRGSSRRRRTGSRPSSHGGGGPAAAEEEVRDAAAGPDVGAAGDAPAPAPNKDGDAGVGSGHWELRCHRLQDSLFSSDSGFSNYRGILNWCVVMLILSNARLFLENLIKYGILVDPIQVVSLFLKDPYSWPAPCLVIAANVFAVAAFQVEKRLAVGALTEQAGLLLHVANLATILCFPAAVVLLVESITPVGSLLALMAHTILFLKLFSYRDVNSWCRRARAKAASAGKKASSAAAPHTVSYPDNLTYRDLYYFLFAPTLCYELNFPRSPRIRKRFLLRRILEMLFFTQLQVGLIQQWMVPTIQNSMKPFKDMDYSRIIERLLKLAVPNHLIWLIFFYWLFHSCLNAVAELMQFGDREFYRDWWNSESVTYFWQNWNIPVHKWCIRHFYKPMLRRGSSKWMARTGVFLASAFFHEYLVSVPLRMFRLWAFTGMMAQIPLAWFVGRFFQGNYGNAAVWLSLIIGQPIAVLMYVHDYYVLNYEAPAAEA
Assay: In-vitro DGAT1 assay with hDGAT1 microsomes from Sf9 cells (14C oleoyl CoA, scintillation counting)
Format: biochemical
Conditions: for inhibition at 1 µM: read-out: Percentage inhibition of hDGAT1; for Percentage inhibition of hDGAT1: at 1 μM
How it was run: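 Microsomes from Sf9 cells infected with hDGAT1 baculovirus (MOI 5, harvested ~66-72 h) were incubated with [14C]oleoyl-CoA and 1,2-dioleoyl-sn-glycerol at 37 °C for 10 min, in duplicate. After alkaline ethanol stop, triglycerides were heptane-extracted and counted by liquid scintillation; percent inhibition was plotted against compound concentration (nM).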

| Structure (SMILES) | inhibition at 1 µM | Percentage inhibition of hDGAT1 |
| --- | --- | --- |
| O=C(Nc1ccc(-c2cnc(C3CCC(C(=O)O)CC3)s2)cc1)Nc1ccc(F)c(F)c1 (centres unmarked) [Example 180, 4-(5-(4-(3-(3,4-Difluorophenyl)ureido)phenyl)thiazol-2-yl)cyclohexane carboxylic acid] | > 50% | – |
| O=C(Nc1ccc(-c2cnc(C3CCC(C(=O)O)CC3)s2)cc1)Nc1cc(F)cc(F)c1 (centres unmarked) [Example 182, 4-(5-(4-(3-(3,5-Difluorophenyl)ureido)phenyl)thiazol-2-yl)cyclohexane carboxylic acid] | > 50% | – |
| O=C(Nc1ccc(-c2cnc(C3CCC(C(=O)O)CC3)s2)cc1)Nc1c(F)cccc1F (centres unmarked) [Example 184, 4-(5-(4-(3-(2,6-Difluorophenyl)ureido)phenyl)thiazol-2-yl)cyclohexane carboxylic acid] | > 50% | – |
| O=C(Nc1ccc(-c2cnc(C3CCC(C(=O)O)CC3)s2)cc1)Nc1ccc(F)c(F)c1F (centres unmarked) [Example 186, 4-(5-(4-(3-(2,3,4-Trifluorophenyl)ureido)phenyl)thiazol-2-yl)cyclohexane carboxylic acid] | > 50% | – |
| O=C(Nc1ccc(-c2cnc(C3CCC(C(=O)O)CC3)s2)cc1)Nc1ccccc1Cl (centres unmarked) [Example 188, 4-(5-(4-(3-(2-Chlorophenyl)ureido)phenyl)thiazol-2-yl)cyclohexane carboxylic acid] | > 50% | – |
| O=C(Nc1ccc(-c2cnc(C3CCC(C(=O)O)CC3)s2)cc1)Nc1ccc(Cl)cc1Oc1ccccc1 (centres unmarked) [Example 190, 4-(5-(4-(3-(4-Chloro-2-phenoxyphenyl)ureido)phenyl)thiazol-2-yl)cyclohexane carboxylic acid] | > 50% | – |
| O=C(Nc1ccccc1)Nc1ccc(-c2cnc(C3CCC(C(=O)O)CC3)s2)cc1 (centres unmarked) [Example 192, 4-(5-(4-(3-Phenylureido)phenyl)thiazol-2-yl)cyclohexanecarboxylic acid] | > 50% | – |
| CC(C)(C)c1ccc(C(=O)Nc2ccc(-c3cnc(C4CCC(C(=O)O)CC4)s3)cc2)cc1 (centres unmarked) [Example 194, 4-(5-(4-(4-t-Butylbenzamido)phenyl)thiazol-2-yl)cyclohexanecarboxylic acid] | > 50% | – |
| O=C(Nc1ccc(-c2cnc(C3CCC(C(=O)O)CC3)s2)cc1)c1ccccc1Cl (centres unmarked) [Example 196, 4-(5-(4-(2-Chlorobenzamido)phenyl)thiazol-2-yl)cyclohexanecarboxylic acid] | 20 to 50% | – |
| O=C(Nc1ccc(-c2cnc(C3CCC(C(=O)O)CC3)s2)cc1)c1ncc(-c2ccccc2)o1 (centres unmarked) [Example 198, 4-(5-(4-(5-Phenyloxazole-2-carboxamido)phenyl)thiazol-2-yl)cyclohexane carboxylic acid] | > 50% | – |
| O=C(Nc1ccc(-c2cnc(C3CCC(C(=O)O)CC3)o2)cc1)Nc1ccccc1Cl (centres unmarked) [Example 204, 4-(5-(4-(3-(2-Chlorophenyl)ureido)phenyl)oxazol-2-yl)cyclohexanecarboxylic acid] | 20 to 50% | – |
| O=C(Nc1ccccc1)Nc1ccc(-c2cnc(C3CCC(C(=O)O)CC3)o2)cc1 (centres unmarked) [Example 206, 4-(5-(4-(3-Phenylureido)phenyl)oxazol-2-yl)cyclohexanecarboxylic acid] | 20 to 50% | – |
| O=C(Nc1ccc(-c2cnc(C3CCC(C(=O)O)CC3)o2)cc1)Nc1cccc(Cl)c1 (centres unmarked) [Example 208, 4-(5-(4-(3-(3-Chlorophenyl)ureido)phenyl)oxazol-2-yl)cyclohexanecarboxylic acid] | > 50% | – |
| COc1ccccc1NC(=O)Nc1ccc(-c2cnc(C3CCC(C(=O)O)CC3)o2)cc1 (centres unmarked) [Example 210, 4-(5-(4-(3-(2-Methoxyphenyl)ureido)phenyl)oxazol-2-yl)cyclohexane carboxylic acid] | 20 to 50% | – |
| CC(C)(C)c1ccc(C(=O)Nc2ccc(-c3cnc(C4CCC(C(=O)O)CC4)o3)cc2)cc1 (centres unmarked) [Example 214, 4-(5-(4-(4-Tert-butylbenzamido)phenyl)oxazol-2-yl)cyclohexanecarboxylic acid] | 20 to 50% | – |
| O=C(Nc1ccc(-c2noc([C@H]3CC[C@H](C(=O)O)CC3)n2)cc1)Nc1ccccc1Cl [Example 219, (1r,4r)-4-(3-(4-(3-(2-Chlorophenyl)ureido)phenyl)-1,2,4-oxadiazol-5-yl)cyclo hexanecarboxylic acid] | – | + (20-50% Inhibition) |
| O=C(Nc1ccc(-c2noc([C@H]3CC[C@H](C(=O)O)CC3)n2)cc1)Nc1ccc(F)cc1F [Example 221, (1r,4r)-4-(3-(4-(3-(2,4-Difluorophenyl)ureido)phenyl)-1,2,4-oxadiazol-5-yl)cyclohexanecarboxylic acid] | – | + (20-50% Inhibition) |
| Cc1ccc(NC(=O)Nc2ccc(-c3noc([C@H]4CC[C@H](C(=O)O)CC4)n3)cc2)cc1 [Example 223, (1r,4r)-4-(3-(4-(3-p-Tolylureido)Phenyl)-1,2,4-oxadiazol-5-yl)cyclohexane carboxylic acid] | – | + (20-50% Inhibition) |
| O=C(Nc1ccc(-c2noc([C@H]3CC[C@H](C(=O)O)CC3)n2)cc1)Nc1cccc(Cl)c1 [Example 225, (1r,4r)-4-(3-(4-(3-(3-Chlorophenyl)ureido)phenyl)-1,2,4-oxadiazol-5-yl)cyclo hexanecarboxylic acid] | – | ++ (>50 % Inhibition) |
| O=C(Nc1ccc(-c2noc([C@H]3CC[C@H](C(=O)O)CC3)n2)cc1)Nc1ccc(Cl)cc1Oc1ccccc1 [Example 227, (1r,4r)-4-(3-(4-(3-(4-Chloro-2-phenoxyphenyl)ureido)phenyl)-1,2,4-oxadiazol-5-yl)cyclohexanecarboxylic acid] | – | ++ (>50 % Inhibition) |
| CC(C)(C)c1ccc(C(=O)Nc2ccc(-c3noc([C@H]4CC[C@H](C(=O)O)CC4)n3)cc2)cc1 [Example 229, (1r,4r)-4-(3-(4-(4-tert-Butylbenzamido)phenyl)-1,2,4-oxadiazol-5-yl)cyclo hexane carboxylic acid] | – | + (20-50% Inhibition) |
| O=C(Nc1ccc(-c2noc([C@H]3CC[C@H](C(=O)O)CC3)n2)cc1)c1ccc(-c2ccccc2)cc1 [Example 231, (1r,4r)-4-(3-(4-Biphenyl-4-ylcarboxamidophenyl)-1,2,4-oxadiazol-5-yl)cyclo hexanecarboxylic acid] | – | + (20-50% Inhibition) |
| O=C(Nc1ccc(-c2noc([C@H]3CC[C@H](C(=O)O)CC3)n2)cc1)c1ccc(OC(F)(F)F)cc1 [Example 233, (1r,4r)-4-(3-(4-(4-(Trifluoromethoxy)benzamido)phenyl)-1,2,4-oxadiazol-5-yl)cyclohexanecarboxylic acid] | – | + (20-50% Inhibition) |
| CC(C)(CCc1ncc(-c2ccc(NC(=O)Nc3cc(F)cc(F)c3)cc2)s1)C(=O)O [Example 235, 4-(5-(4-(3-(3,5-Difluorophenyl)ureido)phenyl)thiazol-2-yl)-2,2-dimethyl butanoic acid] | > 50% | – |
| CC(C)(CCc1ncc(-c2ccc(NC(=O)Nc3cc(F)cc(F)c3)cc2)s1)C(=O)[O-].[Na+] [Example 235A, Sodium salt of 4-(5-(4-(3-(3,5-difluorophenyl)ureido)phenyl)thiazol-2-yl)-2,2-dimethylbutanoate] | – | ++ (>50 % Inhibition) |
| CC(C)(CCc1ncc(-c2ccc(NC(=O)Nc3cc(F)c(F)cc3F)cc2)s1)C(=O)O [Example 237, 2,2-Dimethyl-4-(5-(4-(3-(2,4,5-trifluorophenyl)ureido)phenyl)thiazol-2-yl)butanoic acid] | > 50% | – |
